Measurements from paper PMC8669712, “G Protein-Coupled Receptor GPR35 Suppresses Lipid Accumulation in Hepatocytes” (ACS Pharmacology & Translational Science, 2021).

What was measured:
HepG2 cells [1] = assay: Oil Red O staining of LXR (T0901317)-induced lipid accumulation in HepG2 cells; assay type: cell-based, human; settings: for antagonist co-addition: effect of lodoxamide on LXR-induced lipid accumulation: T0901317/lodoxamide, concentration-dependent
Method: Human hepatocellular carcinoma HepG2 cells were grown in Minimum Essential Medium (MEM) supplemented with 10% fetal bovine serum (FBS), 2 mM L-glutamine, 1× non-essential amino acid, 1 mM sodium pyruvate, and 1× penicillin/streptomycin. Materials for cell culture were all from Sigma-Aldrich (St. Louis, MO) or Thermo Fisher Scientific (Waltham, MA). Cells were incubated in a humidified CO2 incubator at 37 °C. […] Cells were seeded onto a 12-well plate (1 × 10^5 cells/well) for 24 h prior to drug treatment. […] Lipid accumulation was measured by Oil Red O staining.

HepG2 cells [2] = assay: Label-free cellular impedance assay (xCELLigence) in HepG2 cells; assay type: cell-based, human; settings: HepG2 cells; for impedance response of antagonist added alone: 1 × 10^–5 M; for impedance response to lodoxamide on co-addition of antagonist: antagonist 1 × 10^–5 M, lodoxamide 1 × 10^–8 M
Method: (§1) HepG2 cells were seeded onto xCELLigence E plates (2 × 10^4 cells/well) and incubated for 24 h at 37 °C. To evaluate GPR35 activation and its downstream G protein signaling, HepG2 cells or primary mouse hepatocytes were exposed to GPR35 antagonists or G protein inhibitors 1 h (overnight for Pertussis toxin) prior to GPR35 agonist stimulation. After the addition of GPR35 agonist or vehicle control, the impedance (represented as “cell index”) was recorded every 30 s over a 2 h period using xCELLigence RTCA (Agilent). Each experiment was repeated at least three times.

[3] = tested on: clone 27 HepG2 cells transfected with human GPR35a; assay: Cellular impedance in clone 27 cells transiently transfected with human GPR35a; assay type: cell-based; settings: ML-145 1 × 10^–5 M, lodoxamide 1 × 10^–8 M
Method: Briefly, CRISPR KO cells were transiently transfected 24 h with the human GPR35a expression vector using LipofectAMINE 3000 reagent, according to the manufacturer’s instructions. […] Alternatively, after 24 h transfection, cells were seeded onto a 12-well plate (1 × 10^5 cells/well) for 24 h at 37 °C. Then, cells were incubated with T0901317 and/or GPR35 agonists (in MEM containing 5% FBS) for 72 h. After the drug treatment, cells were stained with Oil Red O to examine the levels of lipid accumulation. Each experiment was repeated at least three times.
as §1

[4] = tested on: hepatocytes from hGPR35a-HA-expressing mice; assay: Oil Red O lipid accumulation in hepatocytes from hGPR35a-HA-expressing mice; assay type: cell-based, mouse
Method: (§2) All mice were bred as WT or homozygous onto a C57BL/6N background. Animals were cared for in accordance with national guidelines on animal experimentation. All animal experiments were conducted under a home office license held by the authors. WT, humanized GPR35a, or KO male mice at 3–4 months of age were used in this study. These mice were fed ad libitum with a standard mouse chow diet. Briefly, mouse primary hepatocytes were isolated using a two-step collagenase perfusion technique.[45] Twelve-well plates or xCELLigence E plates were coated with rat tail collagen I solution (Thermo Fisher Scientific) overnight at 37 °C and washed with PBS. Isolated primary hepatocytes were seeded onto 12-well plates (8 × 10^4 cells/well) or xCELLigence E plates (2 × 10^4 cells/well) in Wiliam’s E medium (Thermo Fisher Scientific) supplemented with 10% fetal bovine serum (FBS) and 1× penicillin/streptomycin. Cells were maintained for 7 days with a fresh medium change every other day. […] Human GPR35 activation was examined using xCELLigence RTCA assay. To access the impact of GPR35 agonists on the lipid accumulation, WT and humanized GPR35 hepatocytes were incubated with T0901317 and/or GPR35 agonists/antagonists, as indicated (in DMEM medium containing 5% FBS and 1.5% BSA) for 48 h. Alternatively, GPR35 KO hepatocytes were incubated with drugs, as indicated for 5 days. In the T0901317 pretreatment model, human GPR35 hepatocytes were stimulated with T0901317 for 2 days and then further treated with lodoxamide for a further 3 days. After each drug treatment, hepatocytes were stained with Oil Red O and quantified as described. Each experiment was repeated at least three times.
Lipid accumulation was measured by Oil Red O staining. A working solution of Oil Red O was prepared, as described with modification.[46] After drug treatment, cells were washed with PBS and fixed with formalin solution for 1 h at 4 °C. Then, cells were stained with Oil Red O working solution for 10 min at room temperature. After PBS washing, Oil Red O was extracted from cells using 150 μl of isopropanol and OD510 nm measured. After the lipid extraction, cells were further soaked in PBS overnight at 4 °C. These cells were then stained with Hoechst 33342 (1 μg/mL) and the fluorescence intensity of Hoechst (represents the DNA content in cells) was measured using a CLARIOstar plate reader (BMG LABTECH). Oil Red O accumulation was corrected for differences in DNA content and expressed as relative absorbency, taking the control condition (treated with vehicle only) as 1.

[5] = tested on: hepatocytes from hGPR35a-HA-expressing mice; assay: Label-free cellular impedance assay in hepatocytes from hGPR35a-HA-expressing mice; assay type: cell-based, mouse
human isoforms of GPR35 = target: human isoforms of GPR35; set-up: method as in PMID 23888932; settings: read-out: Ki from competition studies against a [3H]radiolabeled agonist; cited from earlier work
[6] = tested on: mouse orthologue of GPR35; set-up: method as in PMID 22967846, PMID 30601679; settings: cited from earlier work
[7] = tested on: primary mouse hepatocytes; set-up: method as in Nam et al. 37; settings: against 1 × 10^–6 M lodoxamide; ref Nam et al. 37; read-out: IC50 to block mouse GPR35 in primary hepatocytes; cited from earlier work
[8] = tested on: GPR35 knock-out clones of HepG2 cells; assay: Oil Red O lipid accumulation in GPR35 knock-out clones of HepG2 cells; assay type: cell-based, human; settings: T0901317 4 × 10^–6 M, 48 h, higher baseline
Method: Human hepatocellular carcinoma HepG2 cells were grown in Minimum Essential Medium (MEM) supplemented with 10% fetal bovine serum (FBS), 2 mM L-glutamine, 1× non-essential amino acid, 1 mM sodium pyruvate, and 1× penicillin/streptomycin. Materials for cell culture were all from Sigma-Aldrich (St. Louis, MO) or Thermo Fisher Scientific (Waltham, MA). Cells were incubated in a humidified CO2 incubator at 37 °C. Experiments were performed when cell confluence reached 80%. Cells were seeded onto a 12-well plate (1 × 10^5 cells/well) for 24 h prior to drug treatment. […] Expression of full-length mRNA from the GPR35 gene was eliminated using a dual synthetic gRNA/RNP approach[43] with one guide cutting the intron and one in the exon region to generate a nonfunctional GPR35 protein. The gRNAs were designed with the CRISPR Finder (Welcome Sanger Institute). […] Transfected cells were plated and analyzed for editing efficiency 24-48 h after electroporation. […] To further quantify and capture the genomic DNA deletion, PCR primers listed in Table S1 were designed to amplify the genomic DNA surrounding the target site. […] The amplified PCR products were subjected to paired-end sequencing using NextSeq500 from Illumina using paired-end chemistry with a 150-bp read length. […] The impedance was recorded using xCELLigence RTCA. […] Lipid accumulation was measured by Oil Red O staining.

[9] = tested on: hepatocytes from wild-type mice; assay: Oil Red O lipid accumulation in hepatocytes from wild-type mice; assay type: cell-based, mouse; settings: wild-type mice, 5 × 10^–6 M, 48 h
Method: as §2, with “In the T0901317 pretreatment model, human GPR35 hepatocytes were stimulated with T0901317 for 2 days and then further treated with lodoxamide for a further 3 days.” left out, “Each experiment was repeated at least three times.” left out
(§3) Lipid accumulation was measured by Oil Red O staining. […] After PBS washing, Oil Red O was extracted from cells using 150 μl of isopropanol and OD510 nm measured. […] These cells were then stained with Hoechst 33342 (1 μg/mL) and the fluorescence intensity of Hoechst (represents the DNA content in cells) was measured using a CLARIOstar plate reader (BMG LABTECH). Oil Red O accumulation was corrected for differences in DNA content and expressed as relative absorbency, taking the control condition (treated with vehicle only) as 1.

[10] = tested on: hepatocytes from GPR35 knock-out mice; assay: Oil Red O lipid accumulation in hepatocytes from GPR35 knock-out mice; settings: equivalent time of exposure as in wild-type hepatocytes (48 h)
Method: All mice were bred as WT or homozygous onto a C57BL/6N background. Animals were cared for in accordance with national guidelines on animal experimentation. All animal experiments were conducted under a home office license held by the authors. WT, humanized GPR35a, or KO male mice at 3–4 months of age were used in this study. These mice were fed ad libitum with a standard mouse chow diet. Briefly, mouse primary hepatocytes were isolated using a two-step collagenase perfusion technique.[45] Twelve-well plates or xCELLigence E plates were coated with rat tail collagen I solution (Thermo Fisher Scientific) overnight at 37 °C and washed with PBS. […] After each drug treatment, hepatocytes were stained with Oil Red O and quantified as described. […]
as §3

[11] = hepatocytes from hGPR35a-HA-expressing mice

CC(/C=C1\SC(=S)N(CCCC(=O)Nc2ccc(C(=O)O)c(O)c2)C1=O)=C\c1ccccc1 [ML-145, 2-hydroxy-4-[4-(5Z)-5-[(E)-2-methyl-3-phenylprop-2-enylidene]-4-oxo-2-sulfanylidene-1,3-thiazolidin-3-yl]butanoylaminobenzoic acid]
antagonist co-addition: effect of lodoxamide on LXR-induced lipid accumulation (HepG2 cells [1]): prevented the effect of lodoxamide on lipid accumulation
impedance response of antagonist added alone (HepG2 cells [2]): neither antagonist generated a response distinct from the vehicle
impedance response to lodoxamide on co-addition of antagonist (HepG2 cells [2]): absent
effect of co-addition of antagonist on the lodoxamide impedance signal in clone 27 cells transfected with human GPR35a [3]: blocked
effect of antagonist added alone on lipid content [4, 11]: without effect when added alone
effect of antagonist on lodoxamide suppression of lipid accumulation ([4]; hepatocytes from hGPR35a-HA-expressing mice, T0901317/lodoxamide 5 × 10^–6 M): blocked the effect of lodoxamide in a concentration-dependent manner
effect of co-addition of antagonist on the lodoxamide impedance response ([5]; ML-145 1 × 10^–5 M, lodoxamide 1 × 10^–7 M): prevented
impedance effect of antagonist alone versus DMSO-containing vehicle [5, 11]: no separate effect
Ki (human isoforms of GPR35): 8.7 nM
affinity at the mouse orthologue of GPR35 [6]: neither of these ligands has measurable affinity

COC(=O)c1cnn(-c2ccc(F)cc2F)c1C=NNC(=S)NC(C)(C)C [CID-2745687, 1-(2,4-difluorophenyl)-5-[[2-[[(1,1-dimethylehyl)amino]thioxomethyl]hydrazinylidene]methyl]-1H-pyrazole-4-carboxylic acid methyl ester]
antagonist co-addition: effect of lodoxamide on LXR-induced lipid accumulation (HepG2 cells [1]): prevented the effect of lodoxamide on lipid accumulation
impedance response of antagonist added alone (HepG2 cells [2]): neither antagonist generated a response distinct from the vehicle
impedance response to lodoxamide on co-addition of antagonist (HepG2 cells [2]): absent
Ki (human isoforms of GPR35): 42 nM
affinity at the mouse orthologue of GPR35 [6]: neither of these ligands has measurable affinity
IC50 [7]: 98 nM

O=S(=O)(c1ccccc1)N(CC(F)(F)F)c1ccc(C(O)(C(F)(F)F)C(F)(F)F)cc1 [T0901317, N-(2,2,2-trifluoroethyl)-N-[4-[2,2,2-trifluoro-1-hydroxy-1-(trifluoromethyl)ethyl]phenyl]benzenesulfonamide]
deposition of triglycerides and other lipids (Oil Red O) (HepG2 cells [1]; 4 × 10^–6 M, 48 h): substantially increased
lipid accumulation on LXR activation in GPR35 knock-out clones [8]: still able to promote lipid accumulation
lipid accumulation in mouse hepatocytes [9]: able to promote lipid accumulation
effect of T0901317 on lipid accumulation in hepatocytes from GPR35 knock-out mice [10]: modest
lipid accumulation (Oil Red O) in hepatocytes from hGPR35a-HA-expressing mice ([4]; T0901317 8 × 10^–6 M): clear increase in lipid accumulation
